Our source for the Activity and inhibition values is ChEMBL document CHEMBL1165933, “Diosgenin, a plant-derived sapogenin, enhances regulatory T-cell immunity in the intestine of mice with food allergy” (J Nat Prod, 2010).

Holding throughout (format): functional, organism-based
The subject of test [1] is Mus musculus. Briefly: Effect on TGFbeta+ cells in ovalbumin-sensitized and repeatedly challenged BALB/c mouse food allergy model at 200 mg/kg, po by immunohistochemistry. Set-up: dose 200 mg/kg.
Test [2] relates to Mus musculus. Kind of test: Antiallergic effect in ovalbumin-sensitized and repeatedly challenged BALB/c mouse food allergy model assessed as inhibition of duodenal GATA3 expression at 100 mg/kg, po by immunohistochemistry. Also noted: dose 100 mg/kg.
The subject of test [3] is Mus musculus. Briefly: Enhancement in regulatory T-cell immunity in intestine of ovalbumin-sensitized and repeatedly challenged BALB/c mouse food allergy model assessed as increase in Foxp3+ and IL10+ cells at 100 mg/kg, po by RT-PCR. Also noted: dose 100 mg/kg.
In test [4] the test system is Mus musculus. Kind of test: Enhancement in regulatory T-cell immunity in intestine of ovalbumin-sensitized and repeatedly challenged BALB/c mouse food allergy model assessed as increase in Foxp3+ and IL10+ cells at 200 mg/kg, po by RT-PCR. Set-up: dose 200 mg/kg.
Test [5] has as its system Mus musculus. Briefly: Effect on T-cell infiltration in ovalbumin-sensitized and repeatedly challenged BALB/c mouse food allergy model assessed as CD3+ cells at 200 mg/kg, po by immunohistochemistry. Also noted: dose 200 mg/kg.
Test [6] concerns Mus musculus. Briefly: Enhancement in regulatory T-cell immunity in intestine of ovalbumin-sensitized and repeatedly challenged BALB/c mouse food allergy model assessed as increase in Foxp3+ and IL10+ cells at 100 mg/kg, po by immunohistochemistry. Also noted: dose 100 mg/kg.
Test [7] concerns Mus musculus. Briefly: Enhancement in regulatory T-cell immunity in intestine of ovalbumin-sensitized and repeatedly challenged BALB/c mouse food allergy model assessed as increase in Foxp3+ and IL10+ cells at 200 mg/kg, po by immunohistochemistry. Set-up: dose 200 mg/kg.
Test [8] has as its system Mus musculus. Briefly: Antiallergic effect in ovalbumin-sensitized and repeatedly challenged BALB/c mouse food allergy model assessed as attenuation of duodenal interleukin-4 expression at 100 mg/kg, po by immunohistochemistry. Set-up: dose 100 mg/kg.
Test [9] relates to Mus musculus. Briefly: Effect on T-cell infiltration in ovalbumin-sensitized and repeatedly challenged BALB/c mouse food allergy model assessed as CD3+ cells at 100 mg/kg, po by immunohistochemistry. Also noted: dose 100 mg/kg.
The subject of test [10] is Mus musculus. Kind of test: Effect on TGFbeta+ cells in ovalbumin-sensitized and repeatedly challenged BALB/c mouse food allergy model at 100 mg/kg, po by immunohistochemistry. Also noted: dose 100 mg/kg.
In test [11] the test system is Mus musculus. Kind of test: Antiallergic effect in ovalbumin-sensitized and repeatedly challenged BALB/c mouse food allergy model assessed as attenuation of duodenal interleukin-4 expression at 200 mg/kg, po by immunohistochemistry. Also noted: dose 200 mg/kg.
Test [12] deals with Mus musculus. Kind of test: Antiallergic effect in ovalbumin-sensitized and repeatedly challenged BALB/c mouse food allergy model assessed as inhibition of duodenal GATA3 expression at 200 mg/kg, po by immunohistochemistry. Also noted: dose 200 mg/kg.

The structures appear in SMILES notation. The source made the active and inactive calls. No cut-off for these calls is given here.

With `C[C@@H]1CC[C@@]2(OC1)O[C@H]1C[C@H]3[C@@H]4CC=C5C[C@@H](O)CC[C@]5(C)[C@H]4CC[C@]3(C)[C@H]1[C@@H]2C`, the result in the test on Mus musculus [1], in the test with Mus musculus [5], in the test on Mus musculus [9] and in the test with Mus musculus [10] was inactive. Besides, the inhibition result in the test with Mus musculus [2], in the test with Mus musculus [8], in the test with Mus musculus [11] and in the test on Mus musculus [12] was “Active” each time. Moreover, the result with Mus musculus [3], in the test with Mus musculus [4], with Mus musculus [6] and in the test with Mus musculus [7] was Active.
